Laboratory results reported in ChEMBL document CHEMBL1201862, “PubChem BioAssay data set” (2004).
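Cells were grown in 96-well plates and exposed to each compound for 48 hours at five concentrations; endpoints were interpolated linearly between bracketing concentrations, or set to the highest concentration if not reached. GI50 marks 50% less growth.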 The source made the active and inactive calls. Cut-off read from the data, not from the text of the source: active = GI50 up to about 1.1 µM and inactive = higher.

Key:
Experiment in all cases: NCI anticancer screen, dose series, 48 h
[1] = test system: CCRF-CEM
[2] = test system: HCC 2998
[3] = test system: LOX IMVI
[4] = test system: NCI-H460
[5] = test system: OVCAR-4
[6] = test system: OVCAR-5
[7] = test system: RXF 393
[8] = test system: SF-539
[9] = test system: SK-MEL-28
[10] = test system: SK-OV-3
[11] = test system: SN12C
[12] = test system: U-251
[13] = test system: HL-60
[14] = test system: IGROV-1
[15] = test system: MDA-MB-231
[16] = test system: MDA-MB-435
[17] = test system: NCI/ADR-RES
[18] = test system: RPMI-8226
[19] = test system: SK-MEL-5
[20] = test system: SNB-75

Structure (SMILES) | GI50 [1] | GI50 [2] | GI50 [3] | GI50 [4] | GI50 [5] | GI50 [6] | GI50 [7] | GI50 [8] | GI50 [9] | GI50 [10] | GI50 [11] | GI50 [12] | GI50 [13] | GI50 [14] | GI50 [15] | GI50 [16] | GI50 [17] | GI50 [18] | GI50 [19] | GI50 [20]
CC(C)C(=O)CC(c1ccc(Br)cc1)N1N=C(C(C)C)CC1c1ccc(Br)cc1 (stereo unspecified) | 30.5 µM (inactive) | 34.2 µM (inactive) | 55.8 µM (inactive) | 51.2 µM (inactive) | > 100 µM (inactive) | > 100 µM (inactive) | 16.9 µM (inactive) | > 100 µM (inactive) | > 100 µM (inactive) | 34.5 µM (inactive) | > 100 µM (inactive) | 48.8 µM (inactive) |  |  |  |  |  |  |  | 
O=C1C=C(N2CC2)C(=O)C=C1N1CC1 | 0.0291 µM (active) | 0.307 µM (active) | 0.0849 µM (active) | 0.0401 µM (active) | 0.216 µM (active) | 0.646 µM (active) | 0.0634 µM (active) | 0.0931 µM (active) | 0.29 µM (active) | 0.522 µM (active) | 0.122 µM (active) | 0.229 µM (active) | 0.0265 µM (active) | 0.753 µM (active) | 2.3 µM (inactive) | 1.23 µM (inactive) | 0.757 µM (active) | 0.227 µM (active) | 0.101 µM (active) | 0.385 µM (active)
CC(=O)OC/C=C\Cn1nc(Br)c(=O)[nH]c1=O | 5.24 µM (inactive) | 15.7 µM (inactive) | 6.75 µM (inactive) | 13.2 µM (inactive) |  | 17.9 µM (inactive) | 10.6 µM (inactive) | 11.2 µM (inactive) | 16.4 µM (inactive) |  | 23.2 µM (inactive) | 10.5 µM (inactive) | 4.69 µM (inactive) | 15 µM (inactive) | 18 µM (inactive) | 14.6 µM (inactive) | 17.3 µM (inactive) | 25.9 µM (inactive) | 14.6 µM (inactive) | 15.1 µM (inactive)
CNC(=O)SCC(NC(=O)CCC(N)C(=O)O)C(=O)NCC(=O)O (stereo unspecified) | > 50 µM (inactive) | > 100 µM (inactive) | 67.9 µM (inactive) | > 100 µM (inactive) | > 100 µM (inactive) | > 100 µM (inactive) | > 100 µM (inactive) | > 96.4 µM (inactive) | > 100 µM (inactive) | > 100 µM (inactive) | > 89.7 µM (inactive) | > 86.7 µM (inactive) | > 31.6 µM (inactive) | > 100 µM (inactive) |  |  | > 100 µM (inactive) | 42.3 µM (inactive) | > 100 µM (inactive) | > 100 µM (inactive)
CC(C)C1OC(=O)/C=C/C=C/C=C/C=C/C=C/CC(O)C(C)C(O)CC(O)CC(O)CC(O)CC(O)CC(O)CC(O)/C=C/C1C (stereo unspecified) | > 100 µM (inactive) | > 100 µM (inactive) |  | > 100 µM (inactive) | > 100 µM (inactive) | > 100 µM (inactive) |  | > 100 µM (inactive) | > 100 µM (inactive) | > 100 µM (inactive) |  | > 100 µM (inactive) | > 100 µM (inactive) | > 100 µM (inactive) |  | > 100 µM (inactive) | > 100 µM (inactive) | > 100 µM (inactive) |  | > 100 µM (inactive)
CCOC(=O)C1(C(=O)OCC)CSC1 | > 100 µM (inactive) | 0.192 µM (active) | > 100 µM (inactive) | 0.263 µM (active) | > 100 µM (inactive) |  | > 100 µM (inactive) |  | > 100 µM (inactive) | > 100 µM (inactive) | > 100 µM (inactive) | > 100 µM (inactive) |  |  | > 100 µM (inactive) | > 100 µM (inactive) | > 100 µM (inactive) |  | > 100 µM (inactive) | > 100 µM (inactive)
CCOC(=O)N1CCN(C(=O)Nc2cccc3ccccc23)CC1 | > 10 µM (inactive) | > 10 µM (inactive) | > 10 µM (inactive) | > 10 µM (inactive) | > 10 µM (inactive) | > 10 µM (inactive) | > 10 µM (inactive) | > 10 µM (inactive) | > 10 µM (inactive) | > 10 µM (inactive) | > 10 µM (inactive) | > 10 µM (inactive) | > 10 µM (inactive) | > 10 µM (inactive) | > 10 µM (inactive) | > 10 µM (inactive) | > 10 µM (inactive) | > 10 µM (inactive) | > 10 µM (inactive) | > 10 µM (inactive)
NC(=O)Nc1ccc(C(=O)NCCCNC(=O)c2ccc(NC(N)=O)cc2)cc1 | > 100 µM (inactive) | > 100 µM (inactive) | > 100 µM (inactive) | > 100 µM (inactive) | > 100 µM (inactive) | > 100 µM (inactive) | > 100 µM (inactive) | > 100 µM (inactive) | > 100 µM (inactive) |  |  | > 100 µM (inactive) | > 100 µM (inactive) | > 100 µM (inactive) |  | > 100 µM (inactive) | > 100 µM (inactive) | > 100 µM (inactive) | > 100 µM (inactive) | > 100 µM (inactive)
C=CCN1C(=O)/C(=C/c2cccs2)N=C1SC1OC(COC(=O)c2ccccc2)C(OC(=O)c2ccccc2)C1OC(=O)c1ccccc1 (stereo unspecified) | 53.5 µM (inactive) | > 100 µM (inactive) | > 100 µM (inactive) | > 100 µM (inactive) | > 100 µM (inactive) | > 100 µM (inactive) | > 100 µM (inactive) | > 100 µM (inactive) | > 100 µM (inactive) | > 100 µM (inactive) |  | > 100 µM (inactive) | > 100 µM (inactive) | > 100 µM (inactive) | > 100 µM (inactive) | > 100 µM (inactive) | > 100 µM (inactive) | 22.4 µM (inactive) | > 100 µM (inactive) | > 100 µM (inactive)
N#Cc1c(NC(=S)Nc2ccc(Cl)cc2)sc2c1CCCC2 |  | 64.1 µM (inactive) | > 100 µM (inactive) |  | 5.16 µM (inactive) | > 100 µM (inactive) | > 100 µM (inactive) |  | > 100 µM (inactive) |  | 3.37 µM (inactive) | > 100 µM (inactive) | 34.8 µM (inactive) | > 100 µM (inactive) | 3.54 µM (inactive) | > 100 µM (inactive) | 65.3 µM (inactive) | 24.2 µM (inactive) | > 100 µM (inactive) | > 100 µM (inactive)
OCC(CO)CC1COc2ccccc2O1 (stereo unspecified) | > 10 µM (inactive) | > 10 µM (inactive) | > 10 µM (inactive) | > 10 µM (inactive) | > 10 µM (inactive) | > 10 µM (inactive) | > 10 µM (inactive) | > 10 µM (inactive) | > 10 µM (inactive) | > 10 µM (inactive) | > 10 µM (inactive) | > 10 µM (inactive) | > 10 µM (inactive) | > 10 µM (inactive) | > 10 µM (inactive) | > 10 µM (inactive) | > 10 µM (inactive) | > 10 µM (inactive) | > 10 µM (inactive) | > 10 µM (inactive)
ICC1CCCO1 (stereo unspecified) | > 100 µM (inactive) | > 100 µM (inactive) | > 100 µM (inactive) | > 100 µM (inactive) | > 100 µM (inactive) | > 100 µM (inactive) | > 100 µM (inactive) | > 100 µM (inactive) | > 100 µM (inactive) |  | > 100 µM (inactive) | > 100 µM (inactive) | > 100 µM (inactive) | > 100 µM (inactive) |  |  |  | > 100 µM (inactive) | > 100 µM (inactive) | > 100 µM (inactive)
C[C@H](CN1CC(=O)NC(=O)C1)N1CC(=O)NC(=O)C1 | 34.3 µM (inactive) | 22.7 µM (inactive) | > 100 µM (inactive) | 9.31 µM (inactive) | > 100 µM (inactive) | > 100 µM (inactive) | > 100 µM (inactive) | > 100 µM (inactive) | > 100 µM (inactive) | > 100 µM (inactive) | > 85.3 µM (inactive) | 58.2 µM (inactive) |  | > 100 µM (inactive) |  |  | > 100 µM (inactive) | > 53.2 µM (inactive) | > 100 µM (inactive) | > 100 µM (inactive)
CC(C)=CCc1c(C)cc2cc3c(c(O)c2c1O)C(=O)C=C(O)C3(CC=C(C)C)C/C=C(\C)CO (stereo unspecified) | 11.5 µM (inactive) | 45.2 µM (inactive) | 38.5 µM (inactive) | 27.4 µM (inactive) | 37 µM (inactive) | 48.2 µM (inactive) | 29 µM (inactive) | 39.1 µM (inactive) | 46.2 µM (inactive) | 36.7 µM (inactive) | 31.1 µM (inactive) | 29.6 µM (inactive) | 19.4 µM (inactive) | 38.1 µM (inactive) |  |  | 47.9 µM (inactive) | 20.7 µM (inactive) | 16.4 µM (inactive) | 48.3 µM (inactive)
